Experimental data: PubChem BioAssay AID248 (DTP/NCI, 2004)
Toxic doses and inconclusive results are not listed. Cut-off read from the data, not from the text of the source: active = T/C of 150% or more; inactive = T/C below 125%.

Tested on: L1210 leukemia ip in BDF1 mice, survival T/C
Experiment: NCI In Vivo Anticancer Drug Screen. Data for tumor model L1210 Leukemia (intraperitoneal) in B6D2F1 (BDF1) mice
Settings: endpoint: mean survival time, higher = longer survival
Outline: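 Tumor was transplanted into mice, which were then dosed with test compound or vehicle alone. Survival was recorded for each group, and the treated figure was expressed relative to the control figure.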

[1] = dose: 50.0 mg/kg/injection, schedule: Q01DX001 (ip), vehicle: saline
[2] = dose: 50.0 mg/kg/injection, schedule: Q04DX003 (ip), vehicle: saline
[3] = dose: 6.25 mg/kg/injection, schedule: Q04DX002 (ip), vehicle: saline with Tween-80
[4] = dose: 12.5 mg/kg/injection, schedule: Q04DX002 (ip), vehicle: saline with Tween-80
[5] = dose: 25.0 mg/kg/injection, schedule: Q04DX002 (ip), vehicle: saline with Tween-80
[6] = dose: 100.0 mg/kg/injection, schedule: Q01DX001 (ip), vehicle: carboxymethylcellulose (CMC)
[7] = dose: 200.0 mg/kg/injection, schedule: Q01DX001 (ip), vehicle: carboxymethylcellulose (CMC)
[8] = dose: 400.0 mg/kg/injection, schedule: Q01DX001 (ip), vehicle: carboxymethylcellulose (CMC)
[9] = dose: 100.0 mg/kg/injection, schedule: Q01DX001 (ip), vehicle: saline
[10] = dose: 200.0 mg/kg/injection, schedule: Q01DX001 (ip), vehicle: saline
[11] = dose: 400.0 mg/kg/injection, schedule: Q01DX001 (ip), vehicle: saline
[12] = dose: 100.0 mg/kg/injection, schedule: Q01DX009 (ip), vehicle: Klucel (hydroxypropylcellulose) (HPC)
[13] = dose: 100.0 mg/kg/injection, schedule: Q04DX003 (ip), vehicle: Klucel (hydroxypropylcellulose) (HPC)
[14] = dose: 200.0 mg/kg/injection, schedule: Q04DX003 (ip), vehicle: Klucel (hydroxypropylcellulose) (HPC)
[15] = dose: 400.0 mg/kg/injection, schedule: Q04DX003 (ip), vehicle: Klucel (hydroxypropylcellulose) (HPC)
[16] = dose: 100.0 mg/kg/injection, schedule: Q04DX002 (ip), vehicle: saline with Tween-80
[17] = dose: 200.0 mg/kg/injection, schedule: Q04DX002 (ip), vehicle: saline with Tween-80

Measured: T/C

CCCCCCCCCCCC[n+]1ccc(C(N)=O)cc1
inactive: dose: 12.5 mg/kg/injection, schedule: Q01DX001 (ip), vehicle: saline 91 % of control | dose: 12.5 mg/kg/injection, schedule: Q04DX003 (ip), vehicle: saline 96 % of control | dose: 25.0 mg/kg/injection, schedule: Q01DX001 (ip), vehicle: saline 100 % of control | dose: 25.0 mg/kg/injection, schedule: Q04DX003 (ip), vehicle: saline 87 % of control | [1] 86 % of control | [2] 94 % of control

c1cc[c]([Sn]([c]2ccccc2)([c]2ccccc2)[n]2nnc3ccccc32)cc1
inactive: [3] 96 % of control | [4] 101 % of control | [5] 101 % of control

COc1ccc(Cc2nc(-c3ccc(N=Cc4ccc(N(CCCl)CCCl)cc4)cc3)cs2)cc1
inactive: dose: 50.0 mg/kg/injection, schedule: Q01DX001 (ip), vehicle: carboxymethylcellulose (CMC) 88 % of control | [6] 92 % of control | [7] 97 % of control | [8] 94 % of control

CC(=O)OC1COC(n2cnc3c(=S)nc(N)[nH]c32)C(OC(C)=O)C1OC(C)=O (stereo unspecified)
inactive: [9] 100 % of control | [10] 97 % of control | [11] 97 % of control

Nc1ccc2c(c1)C(=O)c1c(C(=O)O)cccc1-2
inactive: dose: 75.0 mg/kg/injection, schedule: Q01DX001 (ip), vehicle: carboxymethylcellulose (CMC) 108 % of control | dose: 150.0 mg/kg/injection, schedule: Q01DX001 (ip), vehicle: carboxymethylcellulose (CMC) 101 % of control

O=C(COc1ccc(Cl)cc1Cl)NCc1ccc(Cl)cc1
inactive: [12] 91 % of control | [13] 112 % of control | dose: 200.0 mg/kg/injection, schedule: Q01DX009 (ip), vehicle: Klucel (hydroxypropylcellulose) (HPC) 96 % of control | [14] 96 % of control | dose: 400.0 mg/kg/injection, schedule: Q01DX009 (ip), vehicle: Klucel (hydroxypropylcellulose) (HPC) 94 % of control | [15] 95 % of control

Cn1c2c(c3ccccc31)C(=C(c1ccccc1)c1ccccc1)c1ccccc1-2
inactive: [16] 87 % of control | [17] 87 % of control

O=C(Oc1ccccc1)C(O)CO (stereo unspecified)
inactive: dose: 100.0 mg/kg/injection, schedule: Q01DX009 (ip), vehicle: saline with Tween-80 92 % of control | dose: 200.0 mg/kg/injection, schedule: Q01DX009 (ip), vehicle: saline with Tween-80 96 % of control | dose: 400.0 mg/kg/injection, schedule: Q01DX009 (ip), vehicle: saline with Tween-80 93 % of control

CC1CCCC/C1=N/O (stereo unspecified)
inactive: [9] 100 % of control | dose: 100.0 mg/kg/injection, schedule: Q01DX009 (ip), vehicle: saline 97 % of control | [10] 92 % of control | dose: 200.0 mg/kg/injection, schedule: Q01DX009 (ip), vehicle: saline 105 % of control | [11] 91 % of control | dose: 400.0 mg/kg/injection, schedule: Q01DX009 (ip), vehicle: saline 97 % of control

CN1CCC(CO)CC1
inactive: [9] 94 % of control | [10] 100 % of control

COC(=O)NC1CC(O)C(CO)C1 (stereo unspecified)
inactive: dose: 50.0 mg/kg/injection, schedule: Q01DX009 (ip), vehicle: Klucel (hydroxypropylcellulose) (HPC) 94 % of control | [12] 97 % of control

CC(O)c1nc2ccccc2n1C (stereo unspecified)
inactive: dose: 333.0 mg/kg/injection, schedule: Q01DX Z (ip), vehicle: saline 118 % of control | dose: 500.0 mg/kg/injection, schedule: Q01DX Z (ip), vehicle: saline 98 % of control

CC(C)/C(=N\N=C(\c1ccccc1)C(C)C)c1ccccc1
inactive: [16] 94 % of control | [17] 87 % of control | dose: 400.0 mg/kg/injection, schedule: Q04DX002 (ip), vehicle: saline with Tween-80 97 % of control

CSc1nn[nH]n1
inactive: dose: 25.0 mg/kg/injection, schedule: Q01DX009 (ip), vehicle: acetone 93 % of control | dose: 50.0 mg/kg/injection, schedule: Q01DX009 (ip), vehicle: acetone 96 % of control | [2] 92 % of control | dose: 100.0 mg/kg/injection, schedule: Q01DX001 (ip), vehicle: acetone 98 % of control | dose: 100.0 mg/kg/injection, schedule: Q01DX009 (ip), vehicle: acetone 91 % of control | dose: 100.0 mg/kg/injection, schedule: Q04DX003 (ip), vehicle: saline 97 % of control | dose: 200.0 mg/kg/injection, schedule: Q01DX001 (ip), vehicle: acetone 93 % of control

Cc1ccc(Nc2cc(Cl)nc(N)n2)cc1Cl
inactive: dose: 100.0 mg/kg/injection, schedule: Q01DX Z (ip), vehicle: methylcellulose (MC) 97 % of control | dose: 200.0 mg/kg/injection, schedule: Q01DX Z (ip), vehicle: methylcellulose (MC) 100 % of control

COc1ccc(C(=O)c2c[nH]c3c(OC)ccc(O)c23)cc1
inactive: [3] 95 % of control | [4] 95 % of control | [5] 91 % of control

CCCCCCCCOC(=O)Nc1ccc(S(=O)(=O)N(C)C)cc1
inactive: [6] 98 % of control | [7] 97 % of control | [8] 89 % of control

O=C(NCCCNC(=O)Nc1cccc(C2=NCCN2)c1)Nc1cccc(C2=NCCN2)c1
inactive: dose: 8.0 mg/kg/injection, schedule: Q01DX Z (ip), vehicle: carboxymethylcellulose (CMC) 104 % of control | dose: 16.0 mg/kg/injection, schedule: Q01DX Z (ip), vehicle: carboxymethylcellulose (CMC) 111 % of control | dose: 32.0 mg/kg/injection, schedule: Q01DX Z (ip), vehicle: carboxymethylcellulose (CMC) 104 % of control | dose: 64.0 mg/kg/injection, schedule: Q01DX Z (ip), vehicle: carboxymethylcellulose (CMC) 94 % of control

C/C=C/C(O)(C(=O)OCC)C1CCCCC1 (stereo unspecified)
inactive: dose: 100.0 mg/kg/injection, schedule: Q01DX001 (ip), vehicle: other 107 % of control | dose: 200.0 mg/kg/injection, schedule: Q01DX001 (ip), vehicle: other 98 % of control | dose: 400.0 mg/kg/injection, schedule: Q01DX001 (ip), vehicle: other 102 % of control

Clc1ccc(NC(Nc2ccc(Cl)cc2)C(Cl)(Cl)Cl)cc1
inactive: dose: 50.0 mg/kg/injection, schedule: Q01DX001 (ip), vehicle: Klucel (hydroxypropylcellulose) (HPC) 93 % of control | dose: 100.0 mg/kg/injection, schedule: Q01DX001 (ip), vehicle: Klucel (hydroxypropylcellulose) (HPC) 93 % of control | dose: 200.0 mg/kg/injection, schedule: Q01DX001 (ip), vehicle: Klucel (hydroxypropylcellulose) (HPC) 90 % of control

BrC1=C(Br)C(Br)(Br)C(Br)=C1Br
inactive: dose: 10.0 mg/kg/injection, schedule: Q01DX001 (ip), vehicle: saline 101 % of control | dose: 20.0 mg/kg/injection, schedule: Q01DX001 (ip), vehicle: saline 98 % of control

O=C(Cc1ccc([N+](=O)[O-])cc1)NCCc1ccc2c(c1)OCO2
inactive: [9] 96 % of control | [10] 102 % of control | [11] 100 % of control

C(=Nc1ccccc1)c1ccc2c(c1)COO2
inactive: [13] 101 % of control | [14] 101 % of control | [15] 101 % of control

CN(C)c1ccc(N=C(C#N)C#N)cc1
inactive: dose: 75.0 mg/kg/injection, schedule: Q01DX001 (ip), vehicle: other 89 % of control | dose: 150.0 mg/kg/injection, schedule: Q01DX001 (ip), vehicle: other 95 % of control

CCOc1ccc(NC(=O)OC(C)C)cc1
inactive: [13] 89 % of control | [14] 94 % of control | [15] 103 % of control

C=CC1CN2CCC1CC2C(O)c1ccnc2ccccc12 (stereo unspecified)
inactive: dose: 100.0 mg/kg/injection, schedule: Q01DX009 (ip), vehicle: gum acacia 107 % of control | dose: 200.0 mg/kg/injection, schedule: Q01DX009 (ip), vehicle: gum acacia 105 % of control

CC(C)(C)/C([O-])=N/[N+](C)(C)Cc1ccccc1
inactive: [9] 97 % of control | [10] 98 % of control | [11] 98 % of control

CC1(O)CCCCCCC1
inactive: [1] 102 % of control | [9] 93 % of control | [10] 91 % of control

O=C(NC(=S)Nc1nc(-c2ccccc2)cs1)c1ccccc1
inactive: dose: 100.0 mg/kg/injection, schedule: Q01DX001 (ip), vehicle: gum acacia 95 % of control | dose: 200.0 mg/kg/injection, schedule: Q01DX001 (ip), vehicle: gum acacia 103 % of control | dose: 400.0 mg/kg/injection, schedule: Q01DX001 (ip), vehicle: gum acacia 103 % of control

CCCCCCCCOC(=O)c1[nH]cnc1N
inactive: [1] 100 % of control | [9] 96 % of control | [10] 96 % of control
